Data on 47 compounds can be found in patent publication US5624952A, “[(Benzodioxan, benzofuran or benzopyran) alkylamino] alkyl substituted guanidines” (Janssen Pharmaceutica N.V., priority 1993, dated 1997).

Counter-ions that a name gives are not always drawn.

This assay relates to basilar arteries of pigs. The assay can be described thus: Constriction of isolated basilar artery segments of pigs in organ baths (serotonin-like response). The settings on record: Sus scrofa; pig basilar artery segments, 37° C., Krebs-Henseleit; relative to serotonin 3×10^-7 M; estimated from three different preparations; read-out: ED50 (molar concentration at which a test compound causes 50% of the constrictive response obtained with serotonin). The method, then:
Segments of basilar aeries taken from pigs (anaesthetised with sodium pentobarbital) were mounted for recording of isometric tension in organ baths. The preparations were bathed in Krebs--Henseleit solution. The solution was kept at 37° C. and gassed with a mixture of 95% O2 -5% CO2. The Preparations were stretched until a stable basal tension of 2 grams was obtained.
The preparations were made to constrict with serotonin (3×10^-7 M). The response to the addition of serotonin was measured and subsequently the serotonin was washed away.
This Procedure was repeated until stable responses were obtained.
Subsequently the test compound was administered to the organ bath and the constriction of the Preparation was measured. This constrictive response is expressed as a Percentage of the response to serotonin as measured Previously.
The ED50 -value (molar concentration) is defined as the concentration at which a test compound causes 50% of the constrictive response obtained with serotonin. Said
ED50 -values are estimated from experiments on three different preparations.

Take `CC(C)(C)c1ccc2c(c1)OC(CNCCCNC1=NCCCN1)CC2` (centres unmarked) [Compound 89]: the EC50 was 79.4 nM.
Take `CCc1ccc2c(c1)OC(CNCCCNC1=NCCCCN1)CC2` (centres unmarked) [Compound 116]: the EC50 is 68.2 nM.
As to `c1ccc2c(c1)CCC(CNCCCNC1=NCCN1)O2` (centres unmarked) [Compound 130], the EC50 is 33.6 nM.
To `c1ccc2c(c1)CCC(CNCCCCNC1=NCCCN1)O2` (centres unmarked) [Compound 97] belongs 97.6 nM; to `CC(C)c1ccc2c(c1)OC(CNCCCNC1=NCCCN1)CC2` (centres unmarked) [Compound 86], 41.6 nM; to `c1ccc2c(c1)CCC(CNCCNC1=NCCN1)O2` (centres unmarked) [Compound 129], 444 nM.
On to `c1ccc2c(c1)CCC(CNCCCNc1nccnn1)O2` (centres unmarked) [Compound 115], for which the EC50 was 45.1 nM.
For the compound `CCc1ccc2c(c1)OC(CNCCCNC1=NCCN1)CC2` (centres unmarked) [Compound 133], the EC50 is 52.7 nM.
Regarding `Brc1ccc2c(c1)CCC(CNCCCNC1=NCCCN1)O2` (racemic) [Compound 56, (±)-N-[(6-bromo-3,4-dihydro-2H-1-benzopyran-2-yl)methyl]-N'-(1,4,5,6-tetrahydro-2-pyrimidinyl)-1,3-propanediamine ethanedioate(1:2)], the EC50 is 187 nM.
Consider `Fc1ccc2c(c1)CC[C@H](CNCCCNC1=NCCCN1)O2` [Compound 70], for which the EC50 was 6.37 nM.
Consider `CCCc1ccc2c(c1)OC(CNCCCNC1=NCCCN1)CC2` (centres unmarked) [Compound 88], for which the EC50 is 7.02 nM.
For `c1ccc2c(c1)CC[C@H](CNCCCNC1=NCCCN1)O2` [Compound 62, (-)-(R)-N-[(3,4-dihydro-2H-1-benzopyran-2-yl)methyl]-N'-(1,4,5,6-tetrahydro-2-pyrimidinyl)-1,3-propanediamine dihydrochloride hemihydrate], the EC50 is 31.7 nM.
To `c1ccc2c(c1)CC[C@@H](CNCCCNC1=NCCCN1)O2` [Compound 65] belongs 221 nM; to `c1ccc2c(c1)CC[C@H](CN1CCC(NC3=NCCCN3)CC1)O2` [Compound 139], 150 nM.
Next, `c1ccc2c(c1)CC[C@H](CNCCCCNC1=NCCCN1)O2` [Compound 99]: 42.2 nM; `Cc1cccc2c1OC(CNCCCNC1=NCCCN1)CC2` (centres unmarked) [Compound 84]: 13.3 nM; `CCCCc1ccc2c(c1)OC(CNCCCNC1=NCCCN1)CC2` (centres unmarked) [Compound 87]: 88.7 nM.
On to `CN(C)C(=N)NCCCNCC1CCc2ccccc2O1` (centres unmarked) [Compound 151], for which the EC50 was 27.1 nM.
Next, `c1ccc2c(c1)CC(CNCCCNC1=NCCCN1)O2` (centres unmarked) [Compound 66]: 656 nM; `COc1ccc2c(c1)OC(CNCCCNC1=NCCCN1)CC2` (centres unmarked) [Compound 78]: 35.4 nM; `Fc1ccc2c(c1)CC[C@H](CNCCNc1ncccn1)O2` [Compound 46, (-)-(R)-N-[(6-fluoro-3,4-dihydro-2H-1-benzopyran-2yl)methyl]-N'-(2-pyrimidinyl)-1,2-ethanediamine]: 1000 nM.
Take `COc1cccc2c1OC(CNCCCNC1=NCCCN1)CC2` (centres unmarked) [Compound 76]: the EC50 is 9.19 nM.
In the case of `c1ccc2c(c1)CCC(CNCCNC1=NCCCN1)O2` (centres unmarked) [Compound 57], the EC50 was 542 nM.
For `c1ccc2c(c1)CCC(CNCCCNC1=NCCCN1)O2` (racemic) [Compound 95, (±)-N-[(3,4-dihydro-2H-1-benzopyran-2-yl)methyl]-N'-(1,4,5,6-tetrahydro-2-pyrimidinyl)-1,3-propanediamine dihydrochloride], the EC50 was 81.7 nM.
`Cc1ccc2c(c1)OC(CNCCCNC1=NCCCN1)CC2` (centres unmarked) [Compound 67]: the EC50 was 17.7 nM.
Turning to `Fc1ccc2c(c1)CCC(CNCCCCCCNC1=NCCCN1)O2` (centres unmarked) [Compound 68], the EC50 is 33.3 nM.
Consider `CCc1ccc2c(c1)OC(CNCCCCNc1ncccn1)CC2` (centres unmarked) [Compound 18], for which the EC50 was 49 nM.
Turning to `N#Cc1ccnc(NCCCNCC2CCc3ccccc3O2)n1` (centres unmarked) [Compound 113], the EC50 is 16.3 nM.
As to `NC(=O)c1ccnc(NCCCNCC2CCc3ccccc3O2)n1` (centres unmarked) [Compound 114], the EC50 is 95.6 nM.
Consider `CCc1ccc2c(c1)OC(CNCCCNC1=NCCCN1)CC2` (centres unmarked) [Compound 73], for which the EC50 was 3.46 nM.
As to `CCc1ccc2c(c1)OC(CNCCCNC(=N)N(C)C)CC2` (centres unmarked) [Compound 153], the EC50 was 21.8 nM.
Take `Fc1ccc2c(c1)CC[C@H](CNCCCNc1ncccn1)O2` [Compound 13]: the EC50 was 42.2 nM.
Turning to `CCNC(=N)NCCNCC1CCc2ccccc2O1` (centres unmarked) [Compound 148], the EC50 is 495 nM.
Consider `c1ccc2c(c1)CCC(CNCCCNC1=NCCCCN1)O2` (centres unmarked) [Compound 111], for which the EC50 is 16.7 nM.
As for `CCCNC(=N)NCCCNCC1CCc2ccccc2O1` (centres unmarked) [Compound 149], the EC50 was 99.2 nM.
As to `c1ccc2c(c1)CCC(CNCCCCCNC1=NCCCN1)O2` (centres unmarked) [Compound 98], the EC50 is 34.2 nM.
To `c1cnc(NCCCCNCC2CCc3ccccc3O2)nc1` (centres unmarked) [Compound 48] belongs 306 nM.
Consider `Fc1ccc2c(c1)OC(CNCCCNC1=NCCCN1)CC2` (centres unmarked) [Compound 72], for which the EC50 was 23.4 nM.
Take `Cc1ccc2c(c1)OC(CNCCCNC(=N)N(C)C)CC2` (centres unmarked) [Compound 152]: the EC50 was 56 nM.
For `c1ccc2c(c1)OCC(CNCCCNC1=NCCCN1)O2` (centres unmarked) [Compound 64], the EC50 is 89.7 nM.
For the compound `c1cnc(NCCCNC[C@@H]2CCc3ccccc3O2)nc1` [Compound 5], the EC50 is 515 nM.
With `Fc1ccc2c(c1)CCC(CNCCCNc1ncccn1)O2` (centres unmarked) [Compound 3], the EC50 was 146 nM.
With `Fc1ccc2c(c1)CCC(CNCCCNC1=NCCN1)O2` (centres unmarked) [Compound 106], the EC50 is 39 nM.
Next, `Fc1ccc2c(c1)CCC(CNCCCNC1=NCCCN1)O2` (centres unmarked) [Compound 63]: 121 nM; `CC(C)NC(=N)NCCCNCC1CCc2ccccc2O1` (racemic) [Compound 150, (±)-N-[3-[[(3,4-dihydro-2H-1-benzopyran-2-yl)methyl]amino]propyl]-N'-(1-methylethyl)-guanidine dihydrochloride]: 46.9 nM.
As for `c1ccc2c(c1)CCC(CN1CCC(NC3=NCCCN3)CC1)O2` (centres unmarked) [Compound 136], the EC50 was 810 nM.
Take `CCc1ccc2c(c1)OC(CNCCCCCNC1=NCCCN1)CC2` (centres unmarked) [Compound 82]: the EC50 is 17.6 nM.
